# Laboratory results: patent US4963570A, “1-(acetylaminophenyl)-2-aminopropanone derivatives and pharmaceutical compositions thereof” (Laboratoire L. Lafon, priority 1983, dated 1990)
# “Also recorded” adds a separate entry of the source. Counter-ions that a name gives are not always drawn.
# How the values were obtained:
# dogs = assay: cardiovascular action in anesthetized dogs; assay type: in vivo, dog; details: control dogs
# Procedure: Four dogs (average weight: 13.8 kg), anesthetized with nembutal, receive CRL 41 220 by intraduodenal administration at successive doses of 0.1 mg/kg, 0.5 mg/kg, 1 mg/kg, 2.5 mg/kg, 5 mg/kg and 10 mg/kg. The blood pressure, the heart beat, the flow rate through the femoral artery, the flow rate through the vertebral artery and the rectal and/or skin temperature are measured and the coloration of the skin and the bile (collected by catheterization of the bile duct after ligature of the cystic duct) is observed.
# male mice [1] = assay: influence of catecholamines on hyperactivity in mice; assay type: in vivo, mouse; details: I.V.C., 10 μg
# Procedure: A further series of assays was carried out on mice according to the teaching of S. L. HANDLEY et al. "Influences of catecholamines on dexamphetamine, induced changes in locomotor activity", Psychopharmacology 58, 283-288 (1978), in order to observe a potential influence of dopamine or moradrenaline on the hyperactivity induced by CRL 41 152.
# After a habituation period of 1.5 h to the actimeters, male mice (grouped into batches of 10 animals each and a control batch of 20 animals) were administered (under slight anesthesia with ether) per intraventriculocerebral injection (i.e. I.V.C. route) with (i) either 10 μg of noradrenaline, or 10 μg of dopamine or 10 μl (0.5 μl/second) of saline solution, then (ii) 5 minutes later, with CRL 41 152 (in solution in distilled water) per I.P. route in a volume of 20 ml/kg, immediately before replacing the mice in the actimeters vherein their motility was recorded for 1 hour by measuring the number of crossed rays per period of 5 minutes).
# Batches receiving CRL 41 152 per I.P. route with noradreanaline or dopamine per I.V.C. route were compared with (i) the control batch receiving the saline solution per I.V.C. route then distilled water per I.P. route, and (ii) batches receiving only noradrenaline, dopamine (per I.V.C. route) or CRL 41 152 (per I.P. route).
# [2] = system: peripheral α-adrenergic stimulation; assay: signs of peripheral adrenergic stimulation; assay type: in vivo, mouse; rat; details: i.p.; dose not stated
# Procedure: (§1) Groups of three animals are observed before and then 0.25 hour, 0.50 hour, 1 hour, 2 hours, 3 hours and 24 hours after the administration of CRL 41 224.
# mice [3] = assay: action on the behavioral despair; assay type: in vivo, mouse; details: i.p., dose not stated
# Description: Half an hour after they have received CRL 41 224, groups of 6 mice are placed in a beaker filled with water to a height of 6 cm. The total period of immobility between the 2nd and 6th minutes following immersion is noted.
# male mice [4] = assay: acute toxicity, intraperitoneal (lethal doses); assay type: in vivo, mouse; details: i.p.
# Procedure: By intraperitoneal administration to male mice, the LD-30 (lethal dose for 30% of the animals tested) is of the order of 128 mg/kg and the LD-50 is of the order of about 200 mg/kg.
# mice [5] = assay: overall behavior and reactivities in mice; assay type: in vivo, mouse; details: mice, i.p.; dose not stated
# Procedure: as §1
# rats [6] = assay: interaction with amphetamine; assay type: in vivo, rat; details: rats, i.p.; dose not stated
# Procedure: Amphetamine (2 mg/kg) is injected intraperitoneally into groups of 6 rats 30 minutes after the administration of CRL 41 224.
# mice [7] = assay: motility reduced by hypoxic aggression; assay type: in vivo, mouse; details: i.p., dose not stated
# Procedure: Half an hour after they have received CRL 41 224, the mice (10 per dose, 20 control animals) are subjected to acute hypobaric anoxia [pressure reduction of 600 mm Hg (i.e. about 8×10^4 Pa) in 90 seconds; release of vacuum in 45 seconds] and are then placed in an actimeter, where their motility is recorded for 10 minutes.
# mice [8] = assay: action on the spontaneous motility (actimeter); assay type: in vivo, mouse; details: mice, i.p.; dose not stated
# Procedure: 0.5 hour after they have received CRL 41 224, the mice (6 per dose, 12 control animals) are placed in an actimeter, where their motility is recorded for 30 minutes.
# mice [9] = assay: interaction with reserpine; assay type: in vivo, mouse; details: i.p.; dose not stated
# Procedure: Four hours after the intraperitoneal injection of 2.5 mg/kg of reserpine, groups of 6 mice receive CRL 41 224.
# mice [10] = assay: motility reduced by habituation to the enclosure; assay type: in vivo, mouse; details: i.p., dose not stated
# Procedure: After they have stayed in the actimeters for 18 hours, the mice (6 per dose, 12 control animals) receive CRL 41 224. They are immediately returned to their respective enclosures and, half an hour later, their motility is recorded for 30 minutes.
# rats [11] = assay: interaction with apomorphine in rats; assay type: in vivo, rat; details: i.p., dose not stated
# Procedure: CRL 41 224 is administered to groups of 6 rats 0.5 hour before the subcutaneous injection of 0.5 mg/kg of apomorphine.
# mice [12] = assay: interaction with oxotremorine; assay type: in vivo, mouse; details: i.p.; dose not stated
# Procedure: CRL 41 224 is administered to groups of 6 mice 0.5 hour before the intraperitoneal injection of 0.5 mg/kg of oxotremorine.
# mice [13] = assay: interaction with apomorphine in mice; assay type: in vivo, mouse; details: i.p.; dose not stated
# Procedure: Groups of 6 mice receive CRL 41 224 0.5 hour before the subcutaneous injection of 1 or 16 mg/kg of apomorphine.
# mice [14] = assay: four plate test, traction and electric shock; assay type: in vivo, mouse; details: i.p., dose not stated
# Procedure: The test is performed on groups of 10 mice 30 minutes after the administration of CRL 41 224.
# mice [15] = assay: interaction with barbital; assay type: in vivo, mouse; details: i.p.; dose not stated
# Procedure: Half an hour after the administration of CRL 41 224, groups of 10 mice receive an intraperitoneal injection of barbital (220 mg/kg).
# CNS = assay: overall neuropsychopharmacological (CNS) profile; assay type: in vivo, mouse; rat; details: i.p., mice and rats, dose not stated
# Procedure: The neuropsychopharmacological study of CRL 41 219 was carried out as indicated above for CRL 41 224.
# The neuropsychopharmacological study of CRL 41 220 was carried out in accordance with the procedures given above for CRL 41 224.
# rats [16] = assay: overall behavior and reactivities in rats; assay type: in vivo, rat; details: i.p., dose not stated
# Procedure: as §1
# rats [17] = assay: action on stereotypies in rats (α-methyltyrosine, haloperidol, reserpine); details: i.p.
# LEWIS' carcinoma = LEWIS' carcinoma in mice; assay type: in vivo, mouse; details: mice
# Procedure: a. animals: consanguineous female mice (C57 BL6), b. infecting cells: 10^5 cells injected subcutaneously into the back of the animals, c. monitoring of the tumor growth by measurement of the tumor twice a week, d. evaluation of the pulmonary metastases after fixation of the lungs of the dead animals in BOUIN's fixative.
# Using the same procedures, the association of CRL 41 220 with 150 mg/kg of cyclophosphamide gives the results collated in Table II below.
SMILES,mydriasis [2],"peripheral adrenergic stimulation, overall [2]","period of immobility or ""despair"" (mice [3])",excitation in mice (mice [5]),stereotypies induced by amphetamine (rats [6]),motor recovery after hypoxic aggression (mice [7]),spontaneous motility / motor activity (mice [8]),hypothermia induced by reserpine (mice [9]),ptosis induced by reserpine (mice [9]),motor activity after habituation to the enclosure (mice [10]),stereotypies induced by apomorphine (rats [11]),hypothermia induced by oxotremorine (mice [12]),hypothermia induced by apomorphine (mice [13]),also measured
"NC[C@H](O)c1ccc(O)c(O)c1 [noradrenaline, reference compound]",–,–,–,–,–,–,–,–,–,–,–,–,–,"systolic blood pressure with 2 μg/kg of noradrenaline, control animals (dogs; noradrenaline alone): 323 mm Hg; locomotor effect by comparison with saline (male mice [1]): did not cause any visible locomotor effect"
CC(=O)Nc1ccc(C(=O)C(C)N2CCOCC2)cc1 (stereo not drawn) [CRL 41 236],mydriasis,peripheral α-adrenergic stimulation,reduction in the immobility,excitation with hyperreactivity,potentiation of the stereotypies induced by apomorphine and amphetamine,improvement in the motor recovery after hypoxic aggression,increase in the spontaneous motility,"antagonism of the hypothermia induced by apomorphine, reserpine",antagonism of the ptosis induced by reserpine,increase in the spontaneous motility and in the motor activity after habituation to the enclosure,potentiation of the stereotypies induced by apomorphine,"antagonism of the hypothermia induced by apomorphine, reserpine and oxotremorine",antagonism of the hypothermia induced by apomorphine,LD-0 (maximum non-lethal dose) (male mice [4]): greater than 256 mg/kg; LD-30 (male mice [4]): about 500 mg/kg; stereotype movements in mice (mice [5]): without the presence of stereotype movements; lethal effects of electric shock (mice [14]): seems to aggravate the lethal effects of electric shock; number of punished passes in the 4 plate test (mice [14]; mice): moderate increase in the number of punished passes; sleep induced by barbital (mice [15]): antagonism of the sleep induced by barbital; overall action on the CNS (CNS): behaves as an antidepressant having stimulant and arousing properties
"CC(C)NCC(O)c1ccc(O)c(O)c1 (stereo not drawn) [isoprenaline, reference compound]",–,–,–,–,–,–,–,–,–,–,–,–,–,"heart beat with 10 μg/kg of isoprenaline, control animals (dogs; isoprenaline alone): 280 beats/minute"
"NCCc1ccc(O)c(O)c1 [dopamine, reference compound]",–,–,–,–,–,–,–,–,–,–,–,–,–,locomotor effect by comparison with saline (male mice [1]): did not cause any visible locomotor effect
"CC(=O)Nc1ccc(C(=O)C(C)NC(C)C)cc1Cl (stereo not drawn) [CRL 41 192, 1-(4-acetylamino-3-chlorophenyl)-2-isopropylaminopropanone hydrochloride]",mydriasis,effects which may reflect peripheral adrenergic stimulation,a reduction in the immobility,excitation with hyperreactivity in mice,potentiation of the stereotypies induced by apomorphine or amphetamine,an improvement in the motor recovery in mice after acute hypoxia,an increase in the spontaneous motility in mice,"antagonism of the hypothermia induced by apomorphine, oxotremorine or reserpine",antagonism of the ptosis induced by reserpine,a resumption in the motor activity of mice accustomed to their enclosure,potentiation of the stereotypies induced by apomorphine,"antagonism of the hypothermia induced by apomorphine, oxotremorine",antagonism of the hypothermia induced by apomorphine,stereotype movements in rats (rats [16]): stereotype movements in rats; exophthalmos [2]: absent; salivation [2]: absent; suppression of induced stereotype movements by prior injection of alpha-methyltyrosine (rats [17]): not suppressed; trembling caused by oxotremorine (mice [12]): antagonism of the trembling caused by oxotremorine; convulsant effects of electric shock (mice [14]): anticonvulsant effects; sleep induced by barbital (mice [15]): antagonism of the sleep induced by barbital; overall action on the CNS (CNS; hydrochloride): stimulant effects; also recorded: antidepressant effects
CC(=O)Nc1ccc(C(=O)C(C)N(C)C)cc1 (stereo not drawn) [CRL 41 232],mydriasis,peripheral α-adrenergic stimulation,reduction in the period of immobility,excitation in mice,potentiation of the stereotypies induced by apomorphine and amphetamine,improvement in the motor recovery,increase in the motor activity,"antagonism of the hypothermia induced by apomorphine, reserpine",antagonism of the ptosis induced by reserpine,distinct resumption in the motor activity of mice accustomed to their enclosure,potentiation of the stereotypies induced by apomorphine,"antagonism of the hypothermia induced by apomorphine, reserpine and oxotremorine",antagonism of the hypothermia induced by apomorphine,stereotype movements in rats (rats [16]): presence of stereotype movements in mice and rats; exophthalmos [2]: exophthalmos; LD-0 (maximum non-lethal dose) (male mice [4]): greater than 128 mg/kg; LD-30 (male mice [4]): about 250 mg/kg; stereotype movements in mice (mice [5]): presence of stereotype movements in mice; overall action on the CNS (CNS): behaves overall as a stimulant and antidepressant for the CNS
"O=P1(N(CCCl)CCCl)NCCCO1 (stereo not drawn) [cyclophosphamide, reference compound]",–,–,–,–,–,–,–,–,–,–,–,–,–,development of tumors (LEWIS' carcinoma; 100 mg/kg): slightly slows down the development of tumors; number of pulmonary metastases (LEWIS' carcinoma; 100 mg/kg): reduces the number of pulmonary metastases; survival of the animals treated (LEWIS' carcinoma; 100 mg/kg): without however improving the survival of the animals treated; effect on process initiated by the administration of infecting cells (LEWIS' carcinoma; 150 mg/kg): distinctly opposes the process initiated by the administration of infecting cells; survival (LEWIS' carcinoma; 150 mg/kg): 2 out of 6
